From patent EP0001618A2, “Process for the preparation of di-N-oxides and their pharmaceutical use” (BAYER AG, priority 1977, dated 1979)

Test system: E. coli Neumann
Assay: Subcutaneous ED100 in infected mice
Assay type: in vivo
Conditions: Escherichia coli, sc, mice infected with E. coli Neumann, mg/kg body weight, ED100 = dose that cures 100 % of the animals, read-out: Subkutane ED100 bei infizierten Mäusen

`Cc1c(C(=O)N2CN(C)CCN(C)C2)[n+]([O-])c2ccccc2[n+]1[O-]` [Beispiel 1] was tested, and the ED100 was 5 to 10 mg/kg.
